# Test system: HepG2 cells
# Test: LC-MS/MS targeted intracellular metabolomics
# Format: cell-based, human
# Details: Suppl Fig 9; C3 (EC15 ATP), 48 h; Bezafibrate lines = Plates 1-6 in order
# Procedure: Metabolite profiling of cells was performed directly in the same 96-well plate according to a standardized protocol described below. In order to prevent any interaction with the cell material, the automatic sampler was adjusted to pick up the sample from the supernatant at a specified depth avoiding the contact with the bottom of the plate.
# After the initial quenching step (50 μL isopropanol 80%), additional 70 μL of isopropanol 80%, containing internal standards (methionine-D3, tryptophan-D5, arginine-13C6-15N4, Boc-Ala-Gly-Gly-Gly-OH, coenzyme Q1, coenzyme Q2, coenzyme Q4) were added to each well. The internal standards were used for quality control by visual inspection (signal intensity, peak shape, retention time); they were not used for normalization. Afterwards, plates were shaken for 5 min, 750 rpm at 20 °C, and placed for 30 s in the ultrasonic device. Then, the plates were centrifugated for 10 min, at 5485 g, 15 °C. Further, 2.5 μL of the extract were injected each for reversed-phase and hydrophilic interaction liquid chromatography followed by MS/MS detection (AB Sciex QTrap 6500+) using the positive and negative ionization mode. For reverse-phase high-performance liquid chromatography (RP-HPLC, Ascentis Express C18, 5 cm × 2.1 mm, 2.7 μm Supelco), gradient elution was performed with mobile phase A, water/methanol/0.1 M ammonium formate (1:1:0.02, w/w), and B, methyl-tert-butylether/2-propanol/methanol/0.1 M ammonium formate/formic acid (4:2:1:0.07:0.035, w/w) 5.9 min linear gradient: 0 min 100% A, 0.5 min 75% A, 5.9 min 10% A; followed by 0% A until 6.7 min; re-equilibration at 100% A until 7.7 min; flow rate 600 μL/min; column temperature 40 °C HILIC (ZIC-HILIC, 2.1 × 100 mm, 3.5 μm, Supelco) gradient elution was performed with mobile phase C, acetonitrile/water (99:1, v/v) with 0.2% (v) acetic acid, and D, 7 mM ammonium acetate with 0.2% (v) acetic acid (5.0 min linear gradient: 0 min 100% C, 5 min 10% C; followed by a linear gradient back to 100%C until 6.5 min; re-equilibration at 100% C until 7.5 min; flow rate 600 μL/min; column temperature 40 °C.). Two LC-MS systems with identical configuration were used for the analysis. Normalization to lyophilized reference samples (see below) was used to compensate for variation from between analytical batches. The efficiency of this normalization procedure was checked by principal component analysis (PCA), confirming that Pool samples from different analytical batches clustered together.
# Reference samples derived from lyophilized untreated HepG2 cells (technical control samples) were measured in parallel throughout the entire analytical process. Data were normalized against the median of these lyophilized HepG2 cells reference samples, to give normalized ratios (performed for each sample per metabolite). This compensated for inter- and intra-instrumental variation. To correct for small differences in cell numbers within and between different treatment groups, data were also normalized to the within sample median, as described in detail by (Ramirez et al. [2018]). For intracellular metabolomic analysis, the median of each sample was calculated across all the 221 measured metabolites.
# To generate metabolic profiles for the different treatments, heteroscedastic t test (Welch test) was applied to log-transformed normalized metabolite data to compare treated groups with their respective controls.
# Principal component analysis (PCA) and hierarchical clustering (HCA) analyses were performed using R software environment (https://www.r-project.org/). PCA was conducted using the ropls package (Thévenot et al. [2015]) with log10-transformed input data and standard scaling. HCA was performed using the pvclust package (Suzuki et al. [2019]), (https://CRAN.R-project.org/package=pvclust). Input: log10(Ratio), clustering method: Ward D2, distance method: Manhattan, bootstrapping: 10000 times.
smiles,measurement,value
O=C(O)c1cc(Oc2ccc(C(F)(F)F)cc2Cl)ccc1[N+](=O)[O-] [Acifluorfen],2'-Deoxycytidine level vs controls,0.56
same,5-Hydroxytryptophan level vs controls,0.74
same,Carnitine level vs controls,0.98
same,Ceramide (d18:1.C20:0) level vs controls,0.74
same,Ceramide (d18:1.C24:1) level vs controls,0.72
same,Ceramide (d18:1.C24:2) level vs controls,0.68
same,Ceramide (d18:2.C24:1) level vs controls,0.64
same,Choline plasmalogen (C36:4) level vs controls,0.75
same,Choline plasmalogen (C36:5) level vs controls,0.70
same,Creatine level vs controls,0.87
same,Glycerol-3-phosphate level vs controls,0.90
same,Hexanoylcarnitine level vs controls,0.70
same,Ketoleucine level vs controls,0.80
same,Lysophosphatidylcholine (C14:0) level vs controls,1.75
same,Lysophosphatidylcholine (C16:0) level vs controls,1.17
same,Lysophosphatidylcholine (C16:1) level vs controls,1.22
same,Lysophosphatidylcholine (C20:4) level vs controls,0.94
same,Lysophosphatidylcholine (C24:0) level vs controls,1.25
same,Lysophosphatidylcholine (C24:1) level vs controls,1.00
same,Lysophosphatidylethanolamine (C16:0) level vs controls,1.67
same,Lysophosphatidylethanolamine (C18:0) level vs controls,1.69
same,Lysophosphatidylethanolamine (C18:1) level vs controls,1.09
same,N-Acetylaspartate level vs controls,1.50
same,Pantothenic acid level vs controls,0.68
same,Phosphatidylcholine (C32:0) level vs controls,0.82
same,Phosphatidylcholine (C34:1) level vs controls,0.81
same,Phosphatidylcholine (C34:3) level vs controls,1.23
same,Phosphatidylcholine (C36:1) level vs controls,0.76
same,Phosphatidylcholine (C36:2) level vs controls,0.78
same,Phosphatidylcholine (C36:3) level vs controls,0.82
same,Phosphatidylcholine (C36:4) level vs controls,0.66
same,Phosphatidylcholine (C36:5) level vs controls,0.71
same,Phosphatidylethanolamine (C36:3) level vs controls,0.86
same,Phosphatidylethanolamine (C38:3) level vs controls,1.05
same,Phosphatidylethanolamine (C38:5) level vs controls,0.82
same,Phosphatidylethanolamine (C38:6) level vs controls,0.91
same,Phosphatidylethanolamine (C40:7) level vs controls,0.68
same,Phosphocholine level vs controls,0.79
same,Propionylcarnitine level vs controls,0.79
same,S-Adenosylhomocysteine level vs controls,0.84
same,Sphingomyelin (d32:2) level vs controls,0.65
same,Sphingomyelin (d33:1) level vs controls,0.93
same,Sphingomyelin (d34:0) level vs controls,1.12
same,Sphingomyelin (d35:1) level vs controls,0.85
same,Sphingomyelin (d36:1) level vs controls,0.84
same,Sphingomyelin (d36:2) level vs controls,0.76
same,Sphingomyelin (d37:1) level vs controls,0.89
same,Sphingomyelin (d38:1) level vs controls,0.89
same,Sphingomyelin (d38:2) level vs controls,0.83
same,Sphingomyelin (d39:1) level vs controls,1.01
same,Sphingomyelin (d40:2) level vs controls,0.87
same,Sphingomyelin (d41:2) level vs controls,0.90
same,Sphingomyelin (d42:2) level vs controls,0.85
same,Taurine level vs controls,0.61
same,Triacylglycerol (C34:1.C18:3) level vs controls,1.73
same,Triacylglycerol (C34:2.C18:0) level vs controls,2.66
same,Triacylglycerol (C34:2.C18:1) level vs controls,2.04
same,Triacylglycerol (C36:4.C16:0) level vs controls,1.86
same,Triacylglycerol (C36:4.C18:0) level vs controls,2.14

# Reference: publication PMC10693528, “A high-throughput metabolomics in vitro platform for the characterization of hepatotoxicity” (Cell Biology and Toxicology, 2023)
